48 compounds from ChEMBL document CHEMBL3046696, “QSAR analysis of caffeoyl naphthalene sulfonamide derivatives as HIV-1 integrase inhibitors” (Med Chem Res, 2006) can be followed below.

As usually defined, the logP is a log measure of how a compound divides between an organic and an aqueous phase. A higher logP goes with higher lipophilicity.

This data set can be described thus: physchem. The conditions noted are these: octanol/water.
Description: Octanol-water partition coefficient, log P of the compound
Regarding `CC(=O)Oc1ccc(/C=C/C(=O)Nc2cccc3c(S(=O)(=O)Nc4ccccc4C)cccc23)cc1OC(C)=O`, the logP was determined as 4.18. With `O=C(/C=C/c1ccc(O)c(O)c1)Nc1cccc2c(S(=O)(=O)Nc3ccc(Cl)cc3)cccc12` the figure was 3.71. With `O=C(/C=C/c1ccc(O)c(O)c1)Nc1cccc2c(S(=O)(=O)Nc3ccc(Br)cc3)cccc12` the figure was 4.14.

Take `Cc1ccc(NS(=O)(=O)c2cccc3c(NC(=O)/C=C/c4ccc(O)c(O)c4)cccc23)cc1`: the log partition coefficient (logP) was 4.13. The figure for `O=C(/C=C/c1ccc(O)c(O)c1)Nc1cccc2c(S(=O)(=O)Nc3cccc([N+](=O)[O-])c3)cccc12` is 4.57; for `Cc1ccccc1NS(=O)(=O)c1cccc2c(NC(=O)/C=C/c3ccc(O)c(O)c3)cccc12` it is 4.6; for `Cc1cccc(NS(=O)(=O)c2cccc3c(NC(=O)/C=C/c4ccc(O)c(O)c4)cccc23)c1C` it is 5.03. In turn, `CC(=O)Oc1ccc(/C=C/C(=O)Nc2cccc3c(S(=O)(=O)Nc4cccc(C(C)C)c4)cccc23)cc1OC(C)=O` yielded a logP of 4.86. With `CC(=O)Oc1ccc(/C=C/C(=O)Nc2cccc3c(S(=O)(=O)Nc4ccc(C(C)C)cc4)cccc23)cc1OC(C)=O` the figure was 4.86; with `CCCCc1cc(NC(=O)/C=C/c2ccc(OC(C)=O)c(OC(C)=O)c2)c2cccc(S(=O)(=O)Nc3ccccc3)c2c1`, 5.32. The compound `CCCCN(c1ccc(F)cc1)S(=O)(=O)c1cccc2c(NC(=O)/C=C/c3ccc(OC(C)=O)c(OC(C)=O)c3)cccc12` registered a logP of 5.12. The figure for `CC(=O)Oc1ccc(/C=C/C(=O)Nc2cccc3c(S(=O)(=O)Nc4ccc(C(F)(F)F)cc4)cccc23)cc1OC(C)=O` is 4.55. As to `CC(=O)Oc1ccc(/C=C/C(=O)Nc2cccc3c(S(=O)(=O)Nc4ccccc4C(F)(F)F)cccc23)cc1OC(C)=O`, the log partition coefficient (logP) stood at 4.55. As to `CC(=O)Oc1ccc(/C=C/C(=O)N(c2cccc3c(S(=O)(=O)Nc4ccccc4)cccc23)C(F)(F)F)cc1OC(C)=O`, the logP was found to be 5.66.

Regarding `CCc1ccc(N(C(=O)/C=C/c2ccc(OC(C)=O)c(OC(C)=O)c2)c2cc(C(F)(F)F)cc3c(S(=O)(=O)Nc4ccc(S(=O)(=O)CC)cc4)cccc23)cc1`, the logP was 7.34. With `CC(=O)Oc1ccc(/C=C/C(=O)N(c2cccc3c(S(=O)(=O)Nc4cccc(C(F)(F)F)c4)cccc23)C(F)(F)F)cc1OC(C)=O` the figure was 6.54; with `CC(=O)Oc1ccc(/C=C/C(=O)N(c2cccc3c(S(=O)(=O)Nc4ccc(C(F)(F)F)cc4)cccc23)C(F)(F)F)cc1OC(C)=O`, 6.54; with `CC(=O)Oc1ccc(/C=C/C(=O)Nc2cccc3c(S(=O)(=O)Nc4ccc(SC(F)(F)F)cc4)cccc23)cc1OC(C)=O`, 5.5. Compound `CC(=O)Oc1ccc(/C=C/C(=O)Nc2cccc3c(S(=O)(=O)Nc4ccc(S(=O)(=O)C(F)(F)F)cc4)cccc23)cc1OC(C)=O` yielded a logP of 4.55. The figure for `CC(=O)Oc1ccc(/C=C/C(=O)N(SC(F)(F)F)c2cccc3c(S(=O)(=O)Nc4ccc(S(=O)(=O)C(F)(F)F)cc4)cccc23)cc1OC(C)=O` is 7.16. The figure for `CC(=O)Oc1ccc(/C=C/C(=O)N(c2cccc3c(S(=O)(=O)Nc4ccc(SC(F)(F)F)cc4)cccc23)S(=O)(=O)C(F)(F)F)cc1OC(C)=O` is 7.16; for `CCS(=O)(=O)c1ccc(NS(=O)(=O)c2cccc3c(N(C(=O)/C=C/c4ccc(OC(C)=O)c(OC(C)=O)c4)S(=O)(=O)C(F)(F)F)cccc23)cc1` it is 4.81; for `CCS(=O)(=O)c1ccc(NS(=O)(=O)c2cccc3c(NC(=O)/C=C/c4ccc(OC(C)=O)c(OC(C)=O)c4)cccc23)cc1` it is 3.15. With `CCS(=O)(=O)c1cc(NC(=O)/C=C/c2ccc(OC(C)=O)c(OC(C)=O)c2)c2cccc(S(=O)(=O)Nc3ccccc3)c2c1` the figure was 3.15. Consider `CCS(=O)(=O)N(C(=O)/C=C/c1ccc(OC(C)=O)c(OC(C)=O)c1)c1cccc2c(S(=O)(=O)Nc3ccccc3)cccc12`, for which the logP was found to be 3.92. Turning to `CC(=O)Oc1ccc(/C=C/C(=O)N(c2cccc3c(S(=O)(=O)Nc4ccc(S(=O)(=O)C(F)(F)F)cc4)cccc23)C(F)(F)F)cc1OC(C)=O`, the logP stood at 6.03.

`CC(=O)Oc1ccc(/C=C/C(=O)Nc2cccc3c(S(=O)(=O)Nc4ccccc4)cccc23)cc1OC(C)=O` showed a lipophilicity (logP) of 3.66. The figure for `CC(=O)Oc1ccc(/C=C/C(=O)Nc2cccc3c(S(=O)(=O)NCc4ccccc4)cccc23)cc1OC(C)=O` is 4.1; for `CC(=O)Oc1ccc(/C=C/C(=O)Nc2cccc3c(S(=O)(=O)NCCc4ccccc4)cccc23)cc1OC(C)=O` it is 3.76; for `CC(=O)Oc1ccc(/C=C/C(=O)Nc2cccc3c(S(=O)(=O)Nc4ccc(F)cc4)cccc23)cc1OC(C)=O` it is 4.19. With `CC(=O)Oc1ccc(/C=C/C(=O)Nc2cccc3c(S(=O)(=O)Nc4ccc(Cl)cc4)cccc23)cc1OC(C)=O` the figure was 4.01; with `CC(=O)Oc1ccc(/C=C/C(=O)Nc2cccc3c(S(=O)(=O)Nc4ccc(Br)cc4)cccc23)cc1OC(C)=O`, 4.44; with `CC(=O)Oc1ccc(/C=C/C(=O)Nc2cccc3c(S(=O)(=O)Nc4ccc(C)cc4)cccc23)cc1OC(C)=O`, 3.8. With `CC(=O)Oc1ccc(/C=C/C(=O)Nc2cccc3c(S(=O)(=O)Nc4cccc([N+](=O)[O-])c4)cccc23)cc1OC(C)=O` the figure was 4.24.

`CC(=O)Oc1ccc(/C=C/C(=O)Nc2cccc3c(S(=O)(=O)Nc4cccc(C)c4C)cccc23)cc1OC(C)=O` registered a logP of 4.62. The figure for `O=C(/C=C/c1ccc(O)c(O)c1)Nc1cccc2c(S(=O)(=O)Nc3ccccc3)cccc12` is 4.46. With `O=C(/C=C/c1ccc(O)c(O)c1)Nc1cccc2c(S(=O)(=O)NCc3ccccc3)cccc12` the figure was 4.89. Compound `O=C(/C=C/c1ccc(O)c(O)c1)Nc1cccc2c(S(=O)(=O)NCCc3ccccc3)cccc12` returned a logP of 4.13. For the compound `O=C(/C=C/c1ccc(O)c(O)c1)Nc1cccc2c(S(=O)(=O)Nc3ccc(F)cc3)cccc12`, the logP was 4.57. The figure for `CC(=O)Oc1ccc(/C=C/C(=O)N(c2ccccc2)c2cccc3c(S(=O)(=O)Nc4ccccc4)cccc23)cc1OC(C)=O` is 5.59; for `CCN(c1ccccc1)S(=O)(=O)c1cccc2c(N(C(=O)/C=C/c3ccc(OC(C)=O)c(OC(C)=O)c3)c3ccccc3)cc(C)cc12` it is 6.65; for `CCN(c1ccccc1)S(=O)(=O)c1cccc2c(N(C(=O)/C=C/c3ccc(OC(C)=O)c(OC(C)=O)c3)c3ccccc3)cccc12` it is 6.18. With `CCc1ccccc1NS(=O)(=O)c1cccc2c(NC(=O)/C=C/c3ccc(OC(C)=O)c(OC(C)=O)c3)cccc12` the figure was 4.53; with `CCc1cccc(NS(=O)(=O)c2cccc3c(NC(=O)/C=C/c4ccc(OC(C)=O)c(OC(C)=O)c4)cccc23)c1`, 4.53. The figure for `CCc1ccc(NS(=O)(=O)c2cccc3c(NC(=O)/C=C/c4ccc(OC(C)=O)c(OC(C)=O)c4)cccc23)cc1` is 4.53. For the compound `CCCc1ccccc1NS(=O)(=O)c1cccc2c(NC(=O)/C=C/c3ccc(OC(C)=O)c(OC(C)=O)c3)cccc12`, the lipophilicity (logP) was 4.92.

Compound `CCCc1cccc(NS(=O)(=O)c2cccc3c(NC(=O)/C=C/c4ccc(OC(C)=O)c(OC(C)=O)c4)cccc23)c1` registered a logP of 4.92.

Compound `CC(=O)Oc1ccc(/C=C/C(=O)Nc2cccc3c(S(=O)(=O)Nc4ccccc4C(C)C)cccc23)cc1OC(C)=O` registered a log partition coefficient (logP) of 4.86.
